Laboratory results as given in publication PMC12155096 (International Journal of Molecular Sciences, 2025).
Counter-ions that a name gives are not always drawn. Like-named read-outs stand apart in the source and are kept apart here.

Assays:
[1] = target: T1, human CYP2D6 (Homo sapiens, UniProt P10635); conditions: human, 1 h
[2] = target: T2, human CYP1A2 (Homo sapiens, UniProt P05177); assay: biochemical; conditions: for AC50: CYP1A2 AC50 (half-maximal activity concentration)
T2 sequence (P05177 1-516): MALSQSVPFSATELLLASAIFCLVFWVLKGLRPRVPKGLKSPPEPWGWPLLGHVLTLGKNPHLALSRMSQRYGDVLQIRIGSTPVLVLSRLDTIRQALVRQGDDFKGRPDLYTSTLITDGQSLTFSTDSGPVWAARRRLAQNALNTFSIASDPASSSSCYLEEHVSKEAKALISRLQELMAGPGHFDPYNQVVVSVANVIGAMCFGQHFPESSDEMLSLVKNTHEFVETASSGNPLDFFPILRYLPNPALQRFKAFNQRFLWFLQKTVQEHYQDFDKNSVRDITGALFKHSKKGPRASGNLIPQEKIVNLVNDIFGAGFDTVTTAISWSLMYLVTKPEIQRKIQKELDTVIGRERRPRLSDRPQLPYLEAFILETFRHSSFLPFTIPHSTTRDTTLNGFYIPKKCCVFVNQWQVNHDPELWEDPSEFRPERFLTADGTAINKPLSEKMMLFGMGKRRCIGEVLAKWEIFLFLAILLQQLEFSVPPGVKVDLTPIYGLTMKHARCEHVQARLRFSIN

[3] = target: human CYP2C9 (Homo sapiens, UniProt P11712); assay: biochemical; conditions: for AC50: CYP2C9 AC50 (half-maximal activity concentration)
Sequence of human CYP2C9 (P11712 whole entry): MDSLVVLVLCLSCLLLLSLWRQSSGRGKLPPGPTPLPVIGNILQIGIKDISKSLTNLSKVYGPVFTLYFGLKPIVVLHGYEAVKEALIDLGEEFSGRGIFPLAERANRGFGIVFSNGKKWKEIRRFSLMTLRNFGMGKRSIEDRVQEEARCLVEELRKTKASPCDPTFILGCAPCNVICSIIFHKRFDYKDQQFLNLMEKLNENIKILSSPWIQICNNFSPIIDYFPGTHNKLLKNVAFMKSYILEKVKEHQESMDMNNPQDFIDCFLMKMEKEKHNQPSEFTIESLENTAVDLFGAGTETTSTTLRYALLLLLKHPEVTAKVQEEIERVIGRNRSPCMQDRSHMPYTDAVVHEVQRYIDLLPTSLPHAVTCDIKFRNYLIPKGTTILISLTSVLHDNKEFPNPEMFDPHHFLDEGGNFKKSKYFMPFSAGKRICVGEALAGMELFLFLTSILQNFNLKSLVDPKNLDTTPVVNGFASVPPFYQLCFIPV

[4] = target: human CYP2C19 (Homo sapiens, UniProt P33261); assay: biochemical; conditions: for AC50: CYP2C19 AC50 (half-maximal activity concentration)
Sequence of human CYP2C19 (P33261 whole entry): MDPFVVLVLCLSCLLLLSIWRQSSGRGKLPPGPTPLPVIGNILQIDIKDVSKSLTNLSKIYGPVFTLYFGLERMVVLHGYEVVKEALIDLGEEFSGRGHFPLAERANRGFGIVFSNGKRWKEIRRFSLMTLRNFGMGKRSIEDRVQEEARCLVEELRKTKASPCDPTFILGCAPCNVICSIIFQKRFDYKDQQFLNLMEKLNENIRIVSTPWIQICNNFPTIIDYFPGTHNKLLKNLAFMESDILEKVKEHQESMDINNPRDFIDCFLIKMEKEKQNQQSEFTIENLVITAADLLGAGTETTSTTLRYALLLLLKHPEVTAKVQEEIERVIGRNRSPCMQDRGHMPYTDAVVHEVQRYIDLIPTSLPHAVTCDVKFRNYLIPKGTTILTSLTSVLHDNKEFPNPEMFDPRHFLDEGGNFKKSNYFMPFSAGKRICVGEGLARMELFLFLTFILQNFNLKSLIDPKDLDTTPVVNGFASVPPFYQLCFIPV

[5] = target: T1, human CYP2D6; assay: biochemical; conditions: for AC50: CYP2D6 AC50 (half-maximal activity concentration)
[6] = CYP1A2 IC50 (half-maximal inhibitory concentration)
[7] = CYP2C9 IC50 (half-maximal inhibitory concentration)
[8] = CYP2C19 IC50 (half-maximal inhibitory concentration)
[9] = CYP2D6 IC50 (half-maximal inhibitory concentration)

T1 sequence (P10635 whole entry): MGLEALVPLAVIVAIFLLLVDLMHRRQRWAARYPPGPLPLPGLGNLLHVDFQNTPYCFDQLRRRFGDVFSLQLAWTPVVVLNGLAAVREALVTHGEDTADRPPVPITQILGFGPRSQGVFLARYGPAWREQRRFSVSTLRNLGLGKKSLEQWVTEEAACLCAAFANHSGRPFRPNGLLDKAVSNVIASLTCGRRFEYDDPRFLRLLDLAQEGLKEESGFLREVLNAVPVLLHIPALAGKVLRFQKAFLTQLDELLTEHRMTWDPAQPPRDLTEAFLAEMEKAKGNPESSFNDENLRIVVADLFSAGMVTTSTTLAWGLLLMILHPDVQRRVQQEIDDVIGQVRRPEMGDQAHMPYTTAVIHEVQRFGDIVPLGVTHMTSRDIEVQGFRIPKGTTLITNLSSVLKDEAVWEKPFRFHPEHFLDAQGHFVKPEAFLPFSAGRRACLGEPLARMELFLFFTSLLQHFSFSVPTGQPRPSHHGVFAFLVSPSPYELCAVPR

Row | SMILES | IC50 [2] [µM] | IC50 [3] [µM] | IC50 [4] [µM] | IC50 [5] [µM] | IC50 [2, 6] [µM] | IC50 [3, 7] [µM] | IC50 [4, 8] [µM] | IC50 [5, 9] [µM] | also measured
1 | N#C/C(=C1/SCC(c2ccccc2Cl)S1)n1ccnc1 (centres unmarked) [Lanoconazole] | 0.87 ± 0.1 | 2.77 ± 0.32 | 0.12 ± 0.05 | 2.58 ± 0.46 | – | – | – | – | CYP2D6 Efficacy (in parenthesis) [1]: 2.58 ± 0.46 (-102 ± 1) %
2 | Clc1cccc(C(c2ccc3[nH]cnc3c2)n2ccnc2)c1 (centres unmarked) [Liarozole] | 16.8 ± 1.09 | 11.2 ± 2.55 | 7.61 ± 4.78 | 31 ± 3.57 | – | – | – | – | CYP2D6 Efficacy (in parenthesis) [1]: 31.04 ± 3.57 (-56 ± 13) %
3 | CC1CCC(C(C)C)C(OC(=O)c2ccccc2N)C1 (centres unmarked) [Menthyl anthranilate] | – | – | – | – | – | – | – | – | AC50 [2]: 16.6 µM; AC50 [3]: 4.33 µM; AC50 [4]: 4.62 µM; AC50 [5]: 57.9 µM
4 | COc1ccc(C(c2ccc(OC)cc2)C(Cl)(Cl)Cl)cc1 [Methoxychlor] | – | – | – | – | 17.8 | 2.45 | 0.86 | 35.5 | –
5 | CCCCCOc1ccccc1/C(=C\SC)n1ccnc1 [Neticonazole] | 4.51 ± 2.88 | 7.76 ± 3.93 | 3.49 ± 2.23 | 7.69 ± 5.3 | – | – | – | – | –
6 | CC(C)OC(=O)c1cc(C(=O)OC(C)C)cc([N+](=O)[O-])c1 [Nitrothal-isopropyl] | 2.34 | 1.06 | 0.52 | 6.51 | – | – | – | – | –
7 | CCN(CC)Cc1nccn1-c1ccc([N+](=O)[O-])cc1C(=O)c1ccccc1Cl [Nizofenone] | 19.8 | 25.1 | 18.8 | 2.98 | – | – | – | – | CYP2D6 Efficacy (in parenthesis) [1]: 2.98 ± 0.19 (-103 ± 6) %
8 | C/C(=C(/OCCOc1ccc(Cl)cc1)c1ccc(Cl)cc1Cl)n1ccnc1 [Omoconazole] | 2.5 ± 0.24 | 0.87 ± 0.1 | 0.92 ± 0.4 | 1.67 ± 0.11 | – | – | – | – | –
9 | CCCCCC(C=O)=Cc1ccccc1 [Pentylcinnamaldehyde] | – | – | – | – | – | – | – | – | AC50 [2]: 29.1 µM; AC50 [3]: 37 µM; AC50 [4]: 30.2 µM; AC50 [5]: 49.4 µM
10 | COP(=S)(OC)SCN1C(=O)c2ccccc2C1=O [Phosmet] | – | 2.04 | – | 24.6 | 6.92 | – | 0.47 | – | –
11 | CNC(=O)Oc1ccc2c(c1)[C@]1(C)CCN(C)[C@@H]1N2C [Physostigmine] | – | – | – | – | 55.4 | 80 | 45.4 | 0.59 | –
12 | CCCCOCCOCCOCc1cc2c(cc1CCC)OCO2 [Piperonyl butoxide] | – | – | – | – | 1.03 | 0.65 | 0.5 | 6.78 | –
13 | CC(=O)SCC(Cc1ccccc1)C(=O)NCC(=O)OCc1ccccc1 (centres unmarked) [Racecadotril] | – | – | – | – | 15.1 | 3.34 | 0.64 | 1.24 | –
14 | C[C@]12Cc3c[nH]nc3C[C@@H]1CC[C@@H]1[C@@H]2CC[C@@]2(C)[C@H]1CC[C@]2(C)O [Stanozolol] | – | – | – | – | 21.5 | 0.94 | 0.55 | 10.8 | –
15 | CCCc1c(OCCCCc2nnn[nH]2)ccc(C(C)=O)c1O [Tomelukast] | – | – | – | – | 54.3 | 0.15 | 0.15 | 31.7 | –
16 | CC(C)(C)C(O)C(Oc1ccc(Cl)cc1)n1cncn1 (centres unmarked) [Triadimenol] | – | – | – | – | 33.6 | 34.4 | 1.38 | 65.1 | –
17 | O[C@@H](COc1cccc2ncccc12)CN1CCN([C@@H]2c3ccccc3[C@@H]3[C@H](c4ccccc42)C3(F)F)CC1 [Zosuquidar trihydrochloride] | – | – | – | – | 15.5 | 9.14 | 20.4 | 15.2 | –
